Source: the Kinase Knowledgebase extract (Sharma et al. 2016)

Columns and labels:
MAPK14 (human) = MAPK14 (human) (UniProt Q16539); test: Inhibition of LPS-Induced TNF-a Production in THP1 Cells
MAPK14 = MAPK14 (UniProt Q16539); test: p-38 Kinase Inhibition Assay
[1] = test system: MAPK14 (sprague-dawley rat); test: Inhibition of LPS Induced TNF-alpha Production in Rats; conditions: dose or concentration not given here

Sequence of MAPK14 (human) (Q16539 whole entry, looked up): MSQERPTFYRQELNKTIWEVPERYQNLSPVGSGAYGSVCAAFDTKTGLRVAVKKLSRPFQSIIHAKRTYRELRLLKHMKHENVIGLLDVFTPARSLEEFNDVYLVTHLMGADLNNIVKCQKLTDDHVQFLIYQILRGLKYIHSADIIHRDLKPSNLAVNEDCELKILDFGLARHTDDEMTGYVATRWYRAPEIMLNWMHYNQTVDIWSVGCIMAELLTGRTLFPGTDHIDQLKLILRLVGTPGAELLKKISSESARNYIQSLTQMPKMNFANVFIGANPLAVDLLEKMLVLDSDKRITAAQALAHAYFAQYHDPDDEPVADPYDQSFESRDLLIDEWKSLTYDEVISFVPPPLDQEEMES
Sequence of MAPK14 (Q16539 whole entry, looked up): as above

SMILES	IC50 (MAPK14 (human)) [nM]	IC50 (MAPK14) [nM]	inhibition [1] [%]
Nc1c(C(=O)c2cccc(OCCCN3CCCCC3)c2)cnn1-c1ccc(F)cc1	610	–	–
N#CCCCOc1cccc(C(=O)c2cnn(-c3ccc(F)cc3)c2N)c1	830	–	–
Nc1c(C(=O)c2cccc(/C=C/S(N)(=O)=O)c2)cnn1-c1ccc(F)cc1	1620	–	–
NC(=NO)c1cccc(C(=O)c2cnn(-c3ccc(F)cc3)c2N)c1	170	1450	76
Nc1c(C(=O)c2ccc(CCCO)cc2)cnn1-c1ccccc1	1770	–	–
Nc1c(C(=O)c2cccc(CCS(N)(=O)=O)c2)cnn1-c1ccc(F)cc1	510	–	–
CNC(=O)COc1cccc(C(=O)c2cnn(-c3ccc(F)cc3)c2N)c1	–	–	75
Nc1c(C(=O)c2cccc(C#CCN3CCOCC3)c2)cnn1-c1ccc(F)cc1	–	–	96
Nc1c(C(=O)c2cccc(N3CCC(Cc4ccccc4)CC3)c2)cnn1-c1ccc(F)cc1	140	–	–
Nc1c(C(=O)c2ccc(/C=C/CN3CCOCC3)cc2)cnn1-c1ccc(F)cc1	6300	–	–
CN1CCN(C(=O)COc2cccc(C(=O)c3cnn(-c4ccc(F)cc4)c3N)c2)CC1	690	–	–
Nc1cccc(C(=O)c2cnn(-c3ccc(F)cc3)c2N)c1	170	–	–
CNCC#Cc1cccc(C(=O)c2cnn(-c3ccc(F)cc3)c2N)c1	–	–	86
Nc1c(C(=O)c2cccc(OCCN3CCOCC3)c2)cnn1-c1ccc(F)cc1	770	–	–
Nc1c(C(=O)c2cccc(CCCN3CCOCC3)c2)cnn1-c1ccc(F)cc1	1040	–	–
CN1CCN(CC#Cc2cccc(C(=O)c3cnn(-c4ccc(F)cc4)c3N)c2)CC1	–	–	86
Nc1c(C(=O)c2cccc(/C=C/CN3CCOCC3)c2)cnn1-c1ccc(F)cc1	1260	–	–
